# Results from paper PMC11538350, “Synthetic studies on the tetrasubstituted D-ring of cystobactamids lead to potent terephthalic acid antibiotics” (Communications Chemistry, 2024).
# Tested on: ESKAPE strains
# Test: MIC-assays on a panel of representative ESKAPE strains, summary in words
# Assay type: cell-based
# Settings: summary of the MIC tables
# Description: (§1) All cystobactamids were evaluated in MIC-assays on a panel of representative ESKAPE strains with focus on A. baumannii (Tables 1 and 2). Compared to our previous work[10],[17],[18], we specifically included more challenging test strains with known resistances against gyrase inhibitors.
# (§2) 2.1 Materials and Methods
# (§3) Strains were cultivated according to standard procedures. Bacterial cryo-cultures were
# (§4) resuspended into fresh MHBII (cation adjusted) medium. The resuspension
# (§5) assay plate (Corning, #3788).
# (§6) in parallel as a positive control. […]
row,SMILES,"antibacterial activity on the pathogen panel, in words"
1,CO[C@@H](C(N)=O)[C@H](NC(=O)c1ccc(NC(=O)c2ccc(C#N)cc2)cc1)C(=O)Nc1ccc(C(=O)Nc2ccc(C(=O)Nc3ccc(C(=O)O)cc3)c(C(F)F)c2OC(C)C)cc1 [Cmpd. 9],complete elimination of activity
2,C#CC[C@H](NC(=O)c1ccc(NC(=O)c2ccc(C#N)cc2)cc1)C(=O)Nc1ccc(C(=O)Nc2ccc(CNc3ccc(C(=O)O)cc3)c(O)c2OC(C)C)cc1 [Cmpd. 41],inactive

# Tested on: K. pneum. KP10581
# Test: MIC assay
# Assay type: cell-based
# Settings: Klebsiella pneumoniae; read-out: MIC K. pneum. KP10581
# Description: as §1, §2, §3, §4, §5, §6
row,SMILES,MIC
1,CO[C@@H](C(N)=O)[C@H](NC(=O)c1ccc(NC(=O)c2ccc(C#N)cc2)cc1)C(=O)Nc1ccc(C(=O)Nc2ccc(C(=O)Nc3ccc(C(=O)O)cc3)c(C(F)F)c2OC(C)C)cc1 [Cmpd. 9],> 64 µg/mL
2,C#CC[C@H](NC(=O)c1ccc(NC(=O)c2ccc(C#N)cc2)cc1)C(=O)Nc1ccc(C(=O)Nc2ccc(CNc3ccc(C(=O)O)cc3)c(O)c2OC(C)C)cc1 [Cmpd. 41],> 64 µg/mL

# Tested on: A. baum. DSM-30008
# Test: MIC assay
# Assay type: cell-based
# Settings: Acinetobacter baumannii, DSM30008; reference strain; read-out: MIC A. baum. DSM-30008
# Description: as §1, §2, §3, §4, §5, §6
row,SMILES,MIC
1,CO[C@@H](C(N)=O)[C@H](NC(=O)c1ccc(NC(=O)c2ccc(C#N)cc2)cc1)C(=O)Nc1ccc(C(=O)Nc2ccc(C(=O)Nc3ccc(C(=O)O)cc3)c(C(F)F)c2OC(C)C)cc1 [Cmpd. 9],> 8 µg/mL
2,C#CC[C@H](NC(=O)c1ccc(NC(=O)c2ccc(C#N)cc2)cc1)C(=O)Nc1ccc(C(=O)Nc2ccc(CNc3ccc(C(=O)O)cc3)c(O)c2OC(C)C)cc1 [Cmpd. 41],> 8 µg/mL

# Tested on: S. aur. ATCC-29213
# Test: MIC assay
# Assay type: cell-based
# Settings: Staphylococcus aureus, ATCC29213; reference strain; read-out: MIC S. aur. ATCC-29213
# Description: as §1, §2, §3, §4, §5, §6
row,SMILES,MIC
1,CO[C@@H](C(N)=O)[C@H](NC(=O)c1ccc(NC(=O)c2ccc(C#N)cc2)cc1)C(=O)Nc1ccc(C(=O)Nc2ccc(C(=O)Nc3ccc(C(=O)O)cc3)c(C(F)F)c2OC(C)C)cc1 [Cmpd. 9],> 64 µg/mL
2,C#CC[C@H](NC(=O)c1ccc(NC(=O)c2ccc(C#N)cc2)cc1)C(=O)Nc1ccc(C(=O)Nc2ccc(CNc3ccc(C(=O)O)cc3)c(O)c2OC(C)C)cc1 [Cmpd. 41],16 to 32 µg/mL

# Tested on: S. pneum. DSM-11865 (PRSP)
# Test: MIC assay
# Assay type: cell-based
# Settings: Streptococcus pneumoniae; read-out: MIC S. pneum. DSM-11865 (PRSP)
# Description: as §1, §2, §3, §4, §5, §6
row,SMILES,MIC
1,CO[C@@H](C(N)=O)[C@H](NC(=O)c1ccc(NC(=O)c2ccc(C#N)cc2)cc1)C(=O)Nc1ccc(C(=O)Nc2ccc(C(=O)Nc3ccc(C(=O)O)cc3)c(C(F)F)c2OC(C)C)cc1 [Cmpd. 9],> 64 µg/mL
2,C#CC[C@H](NC(=O)c1ccc(NC(=O)c2ccc(C#N)cc2)cc1)C(=O)Nc1ccc(C(=O)Nc2ccc(CNc3ccc(C(=O)O)cc3)c(O)c2OC(C)C)cc1 [Cmpd. 41],> 64 µg/mL

# Tested on: E. cloacae ATCC BAA-2468
# Test: MIC assay
# Assay type: cell-based
# Settings: Enterobacter cloacae, ATCCBAA2468; read-out: MIC E. cloacae ATCC BAA-2468
# Description: as §1, §2, §3, §4, §5, §6
row,SMILES,MIC
1,CO[C@@H](C(N)=O)[C@H](NC(=O)c1ccc(NC(=O)c2ccc(C#N)cc2)cc1)C(=O)Nc1ccc(C(=O)Nc2ccc(C(=O)Nc3ccc(C(=O)O)cc3)c(C(F)F)c2OC(C)C)cc1 [Cmpd. 9],> 64 µg/mL
2,C#CC[C@H](NC(=O)c1ccc(NC(=O)c2ccc(C#N)cc2)cc1)C(=O)Nc1ccc(C(=O)Nc2ccc(CNc3ccc(C(=O)O)cc3)c(O)c2OC(C)C)cc1 [Cmpd. 41],> 64 µg/mL

# Tested on: K. pneum. R-1525
# Test: MIC assay
# Assay type: cell-based
# Settings: Klebsiella pneumoniae; read-out: MIC K. pneum. R-1525
# Description: as §1, §2, §3, §4, §5, §6
row,SMILES,MIC
1,CO[C@@H](C(N)=O)[C@H](NC(=O)c1ccc(NC(=O)c2ccc(C#N)cc2)cc1)C(=O)Nc1ccc(C(=O)Nc2ccc(C(=O)Nc3ccc(C(=O)O)cc3)c(C(F)F)c2OC(C)C)cc1 [Cmpd. 9],> 64 µg/mL
2,C#CC[C@H](NC(=O)c1ccc(NC(=O)c2ccc(C#N)cc2)cc1)C(=O)Nc1ccc(C(=O)Nc2ccc(CNc3ccc(C(=O)O)cc3)c(O)c2OC(C)C)cc1 [Cmpd. 41],> 64 µg/mL

# Tested on: E. coli ATCC-25922
# Test: MIC assay
# Assay type: cell-based
# Settings: Escherichia coli, ATCC25922; reference strain; read-out: MIC E. coli ATCC-25922
# Description: as §1, §2, §3, §4, §5, §6
row,SMILES,MIC
1,CO[C@@H](C(N)=O)[C@H](NC(=O)c1ccc(NC(=O)c2ccc(C#N)cc2)cc1)C(=O)Nc1ccc(C(=O)Nc2ccc(C(=O)Nc3ccc(C(=O)O)cc3)c(C(F)F)c2OC(C)C)cc1 [Cmpd. 9],> 8 µg/mL
2,C#CC[C@H](NC(=O)c1ccc(NC(=O)c2ccc(C#N)cc2)cc1)C(=O)Nc1ccc(C(=O)Nc2ccc(CNc3ccc(C(=O)O)cc3)c(O)c2OC(C)C)cc1 [Cmpd. 41],> 64 µg/mL

# Tested on: A. baum. R835
# Test: MIC assay
# Assay type: cell-based
# Settings: Acinetobacter baumannii; read-out: MIC A. baum. R835
# Description: as §1, §2, §3, §4, §5, §6
row,SMILES,MIC
1,CO[C@@H](C(N)=O)[C@H](NC(=O)c1ccc(NC(=O)c2ccc(C#N)cc2)cc1)C(=O)Nc1ccc(C(=O)Nc2ccc(C(=O)Nc3ccc(C(=O)O)cc3)c(C(F)F)c2OC(C)C)cc1 [Cmpd. 9],> 8 µg/mL
2,C#CC[C@H](NC(=O)c1ccc(NC(=O)c2ccc(C#N)cc2)cc1)C(=O)Nc1ccc(C(=O)Nc2ccc(CNc3ccc(C(=O)O)cc3)c(O)c2OC(C)C)cc1 [Cmpd. 41],> 8 µg/mL

# Tested on: E. coli LM705
# Test: MIC assay
# Assay type: cell-based
# Settings: Escherichia coli, LM705, read-out: MIC E. coli LM705
# Description: as §1, §2, §3, §4, §5, §6
row,SMILES,MIC
1,CO[C@@H](C(N)=O)[C@H](NC(=O)c1ccc(NC(=O)c2ccc(C#N)cc2)cc1)C(=O)Nc1ccc(C(=O)Nc2ccc(C(=O)Nc3ccc(C(=O)O)cc3)c(C(F)F)c2OC(C)C)cc1 [Cmpd. 9],> 64 µg/mL
2,C#CC[C@H](NC(=O)c1ccc(NC(=O)c2ccc(C#N)cc2)cc1)C(=O)Nc1ccc(C(=O)Nc2ccc(CNc3ccc(C(=O)O)cc3)c(O)c2OC(C)C)cc1 [Cmpd. 41],> 64 µg/mL

# Tested on: A. baum. ATCC BAA-1710
# Test: MIC assay
# Assay type: cell-based
# Settings: Acinetobacter baumannii, ATCCBAA1710; read-out: MIC A. baum. ATCC BAA-1710
# Description: as §1, §2, §3, §4, §5, §6
row,SMILES,MIC
1,CO[C@@H](C(N)=O)[C@H](NC(=O)c1ccc(NC(=O)c2ccc(C#N)cc2)cc1)C(=O)Nc1ccc(C(=O)Nc2ccc(C(=O)Nc3ccc(C(=O)O)cc3)c(C(F)F)c2OC(C)C)cc1 [Cmpd. 9],> 8 µg/mL
2,C#CC[C@H](NC(=O)c1ccc(NC(=O)c2ccc(C#N)cc2)cc1)C(=O)Nc1ccc(C(=O)Nc2ccc(CNc3ccc(C(=O)O)cc3)c(O)c2OC(C)C)cc1 [Cmpd. 41],1 to 2 µg/mL

# Tested on: A. baum. CIP-107292
# Test: MIC assay
# Assay type: cell-based
# Settings: Acinetobacter baumannii, CIP107292; read-out: MIC A. baum. CIP-107292
# Description: as §1, §2, §3, §4, §5, §6
row,SMILES,MIC
1,CO[C@@H](C(N)=O)[C@H](NC(=O)c1ccc(NC(=O)c2ccc(C#N)cc2)cc1)C(=O)Nc1ccc(C(=O)Nc2ccc(C(=O)Nc3ccc(C(=O)O)cc3)c(C(F)F)c2OC(C)C)cc1 [Cmpd. 9],> 8 µg/mL
2,C#CC[C@H](NC(=O)c1ccc(NC(=O)c2ccc(C#N)cc2)cc1)C(=O)Nc1ccc(C(=O)Nc2ccc(CNc3ccc(C(=O)O)cc3)c(O)c2OC(C)C)cc1 [Cmpd. 41],> 8 µg/mL

# Tested on: P. ae. PA14
# Test: MIC assay
# Assay type: cell-based
# Settings: Pseudomonas aeruginosa, PA14; reference strain; read-out: MIC P. ae. PA14
# Description: as §1, §2, §3, §4, §5, §6
row,SMILES,MIC
1,CO[C@@H](C(N)=O)[C@H](NC(=O)c1ccc(NC(=O)c2ccc(C#N)cc2)cc1)C(=O)Nc1ccc(C(=O)Nc2ccc(C(=O)Nc3ccc(C(=O)O)cc3)c(C(F)F)c2OC(C)C)cc1 [Cmpd. 9],> 64 µg/mL
2,C#CC[C@H](NC(=O)c1ccc(NC(=O)c2ccc(C#N)cc2)cc1)C(=O)Nc1ccc(C(=O)Nc2ccc(CNc3ccc(C(=O)O)cc3)c(O)c2OC(C)C)cc1 [Cmpd. 41],> 64 µg/mL

# Tested on: A. baum. CIP-105742
# Test: MIC assay
# Assay type: cell-based
# Settings: Acinetobacter baumannii, CIP105742; read-out: MIC A. baum. CIP-105742
# Description: as §1, §2, §3, §4, §5, §6
row,SMILES,MIC
1,CO[C@@H](C(N)=O)[C@H](NC(=O)c1ccc(NC(=O)c2ccc(C#N)cc2)cc1)C(=O)Nc1ccc(C(=O)Nc2ccc(C(=O)Nc3ccc(C(=O)O)cc3)c(C(F)F)c2OC(C)C)cc1 [Cmpd. 9],> 8 µg/mL
2,C#CC[C@H](NC(=O)c1ccc(NC(=O)c2ccc(C#N)cc2)cc1)C(=O)Nc1ccc(C(=O)Nc2ccc(CNc3ccc(C(=O)O)cc3)c(O)c2OC(C)C)cc1 [Cmpd. 41],> 8 µg/mL

# Tested on: P. ae. PA14ΔmexAB
# Test: MIC assay
# Assay type: cell-based
# Settings: Pseudomonas aeruginosa, read-out: MIC P. ae. PA14ΔmexAB
# Description: as §1, §2, §3, §4, §5, §6
row,SMILES,MIC
1,CO[C@@H](C(N)=O)[C@H](NC(=O)c1ccc(NC(=O)c2ccc(C#N)cc2)cc1)C(=O)Nc1ccc(C(=O)Nc2ccc(C(=O)Nc3ccc(C(=O)O)cc3)c(C(F)F)c2OC(C)C)cc1 [Cmpd. 9],> 64 µg/mL
2,C#CC[C@H](NC(=O)c1ccc(NC(=O)c2ccc(C#N)cc2)cc1)C(=O)Nc1ccc(C(=O)Nc2ccc(CNc3ccc(C(=O)O)cc3)c(O)c2OC(C)C)cc1 [Cmpd. 41],> 64 µg/mL

# Tested on: K. pneum. CIP-104298
# Test: MIC assay
# Assay type: cell-based
# Settings: Klebsiella pneumoniae, CIP104298; reference strain; read-out: MIC K. pneum. CIP-104298
# Description: as §1, §2, §3, §4, §5, §6
row,SMILES,MIC
1,CO[C@@H](C(N)=O)[C@H](NC(=O)c1ccc(NC(=O)c2ccc(C#N)cc2)cc1)C(=O)Nc1ccc(C(=O)Nc2ccc(C(=O)Nc3ccc(C(=O)O)cc3)c(C(F)F)c2OC(C)C)cc1 [Cmpd. 9],> 64 µg/mL
2,C#CC[C@H](NC(=O)c1ccc(NC(=O)c2ccc(C#N)cc2)cc1)C(=O)Nc1ccc(C(=O)Nc2ccc(CNc3ccc(C(=O)O)cc3)c(O)c2OC(C)C)cc1 [Cmpd. 41],> 64 µg/mL

# Tested on: E. faec. DSM-17050 (VRE)
# Test: MIC assay
# Assay type: cell-based, Enterococcus faecium
# Settings: Enterococcus; read-out: MIC E. faec. DSM-17050 (VRE)
# Description: as §1, §2, §3, §4, §5, §6
row,SMILES,MIC
1,CO[C@@H](C(N)=O)[C@H](NC(=O)c1ccc(NC(=O)c2ccc(C#N)cc2)cc1)C(=O)Nc1ccc(C(=O)Nc2ccc(C(=O)Nc3ccc(C(=O)O)cc3)c(C(F)F)c2OC(C)C)cc1 [Cmpd. 9],> 64 µg/mL
2,C#CC[C@H](NC(=O)c1ccc(NC(=O)c2ccc(C#N)cc2)cc1)C(=O)Nc1ccc(C(=O)Nc2ccc(CNc3ccc(C(=O)O)cc3)c(O)c2OC(C)C)cc1 [Cmpd. 41],16 to 32 µg/mL

# Tested on: E. ae. CIP 106754
# Test: MIC assay
# Assay type: cell-based, Enterobacter aerogenes
# Settings: Klebsiella aerogenes, CIP106754, read-out: MIC E. ae. CIP 106754
# Description: as §1, §2, §3, §4, §5, §6
row,SMILES,MIC
1,CO[C@@H](C(N)=O)[C@H](NC(=O)c1ccc(NC(=O)c2ccc(C#N)cc2)cc1)C(=O)Nc1ccc(C(=O)Nc2ccc(C(=O)Nc3ccc(C(=O)O)cc3)c(C(F)F)c2OC(C)C)cc1 [Cmpd. 9],> 64 µg/mL
2,C#CC[C@H](NC(=O)c1ccc(NC(=O)c2ccc(C#N)cc2)cc1)C(=O)Nc1ccc(C(=O)Nc2ccc(CNc3ccc(C(=O)O)cc3)c(O)c2OC(C)C)cc1 [Cmpd. 41],> 64 µg/mL
